{"source": "patent US9402827B2", "about": "“Treatment of gout” (ARDEA BIOSCIENCES, INC., priority 2010, dated 2016)", "key": {"[1]": {"test_system": "gout flares", "assay": "Phase II clinical trial, gout dose response study: incidence of gout flares (Example 4)", "format": "in vivo, human"}, "[2]": {"test_system": "IL-1β", "assay": "Effect on IL-1β release after stimulation with ATP or MSU crystals (Example 1, FIG. 1)", "format": "cell-based", "settings": "within 1 hour of stimulation with ATP (5 mM) or 1 μg MSU crystals", "experimental": "FIG. 1 illustrates the effect of Lesinurad on IL-1β release within 1 hour of stimulation with ATP (5 mM) or 1 μg MSU (monosodium urate) crystals (compd1=Lesinurad; C-1inh=caspase-1 inhibitor).\nActivation of the inflammasome results in the release of preformed IL-1, which goes on to activate other targets as well as increase the production of IL-1 itself."}, "[3]": {"test_system": "monosodium urate crystal-induced inflammatory response", "assay": "Rat air pouch model of crystal-induced arthropathy (Example 3A)", "format": "in vivo, Sprague-Dawley rats", "settings": "Lesinurad 10, 30 and 100 mg/kg PO; MSU 150 mg; FIG. 5", "experimental": "Procedure • 1. […] NaOH was added as required to maintain pH 8-9. The solution was filtered and incubated at ambient with slow stirring continuously for 24 hours. • b. Crystals were washed, dried and sterilized by autoclaving. • c. […] The rats were anesthetized and bled for sample from retro-orbital sinus into microtainer tubes. • a. The blood was processed to serum; • b. The serum was transferred to labeled Eppendorf tubes (T=0) and stored at −80° C. • c. […] DAY 0: The rats are anesthetized. • a. The nape of the neck was shaved, cleansed with 70% isopropanol followed by cleansing with Povidone. • b. A 23-gauge needle was attached to a 30 ml syringe fitted with an air filter. • c. 30 ml of sterile air was injected subcutaneously and the rat returned to routine maintenance. • 7. DAY 3: Steps 6a) through 6c) were repeated. • 8. […] Exudates volume was measured and recorded for each animal. • a. […] Mean cell counts and standard deviations were determined for each group. • b. Mean optical absorbance measurements and standard deviations were determined for each group. • c. Group means and standard deviations for TNF-alpha and IL-1 were determined for each group. • d. Statistical significance of treatments on mean cell counts, mean optical absorbance measurements and mean cytokine measurements were determined by comparison of means for treatment and positive control groups with vehicle group."}, "[4]": {"test_system": "gout flares", "assay": "Phase II clinical trial in gout patients with hyperuricemia: time to first flare, flare rate (Example 5)", "format": "in vivo, human", "settings": "for 4 Wk % Flare (percent of patients experiencing at least one gout flare by week 4): based on ITT patient number, colchicine prophylaxis; for Time to First Flare (cumulative flare rate), Day 0 / Time to First Flare (cumulative flare rate), Day 7 / Time to First Flare (cumulative flare rate), Day 14 / Time to First Flare (cumulative flare rate), Day 21 / Time to First Flare (cumulative flare rate), Day 28: colchicine prophylaxis 0.5-0.6 mg QD", "experimental": "A phase II clinical trial including 123 gout patients with hyperuricemia (serum uric acid ≧8 mg/dL) in 4 treatment arms was conducted. The trail lasted 8 weeks, comprising a 2 week run in period, 4 week treatment period and 2 week follow-up.\nPatients were randomly assigned to arms 1, 2, 3 or 4 and orally administered Lesinurad according to Table 9 below and FIG. 8; all received colchicine prophylaxis (0.5-0.6 mg QD) for 2 weeks prior to Lesinurad dosing and throughout the 4 week treatment period."}, "[5]": {"test_system": "gout flares", "assay": "Phase II clinical trial, gout dose response study: incidence of gout flares (Example 4)", "format": "in vivo, human", "experimental": "Purpose: To compare the proportion of subjects whose serum urate (sUA) level is <6.0 mg/dL after 28 days of dosing by treatment group. Official Title: Randomized, Double-Blind, Multicenter, Placebo-Controlled, Safety and Efficacy Study of Lesinurad Versus Placebo in the Treatment of Hyperuricemia in Patients With Gout Experimental dosage form: 200 mg capsule of Lesinurad, with appropriate pharmaceutically acceptable excipients Design: • Control: Placebo Control • Endpoint Classification: Safety/Efficacy Study • Intervention Model: Parallel Assignment • Masking: Double Blind (Subject, Caregiver, Investigator, Outcomes Assessor) • Primary Purpose: Treatment Primary Outcome Measures: Compare the proportion of subjects whose serum urate (sUA) level is <6.0 mg/dL after 28 days of dosing by treatment group. […] [table] Inclusion Criteria: • Male or post-menopausal or surgically sterile female. • Hyperuricemic (i.e., screening sUA≧8 mg/dL). • Meets criteria for the diagnosis of gout as per the American Rheumatism Association (ARA) Criteria for the Classification of Acute Arthritis of Primary Gout (see Appendix B). • Willing and able to give informed consent and adhere to visit/protocol schedules (informed consent must be given before the first study procedure is performed).", "remark": "listed apart in the source"}, "[6]": {"settings": "Arm 2 (200 mg week 1, 400 mg weeks 2-4)"}, "[7]": {"settings": "Arm 3 (200 mg week 1, 400 mg week 2, 600 mg weeks 3-4)"}}}
{"smiles": "O=C(O)CSc1nnc(Br)n1-c1ccc(C2CC2)c2ccccc12", "note": "[Lesinurad, 2-(5-bromo-4-(4-cyclopropylnaphthalen-1-yl)-4H-1,2,4-triazol-3-ylthio)acetic acid]", "values": [{"measurement": "% of patients with Flares by Dose at Time of Flare", "setting": "[1]; 400 mg at time of flare (1/65)", "value": "2% (1/65)"}, {"measurement": "Mean Duration of Flares (by dose at time of flare)", "setting": "[1]; 600 mg at time of flare", "value": 1.7, "unit": "days"}, {"measurement": "% Patients with Flares", "setting": "[1]; Randomized dose group 400 mg, N 33", "value": 12, "unit": "%"}, {"measurement": "Mean Duration of Flares", "setting": "[1]; Randomized dose group 600 mg", "value": 1.5, "unit": "days"}, {"measurement": "Duration of flares, in words", "setting": "[1]; across dose groups 200-600 mg", "value": "shorter at higher doses"}, {"measurement": "Flares in the first week out of total flares on drug", "setting": "[1]; first week, patients receiving 200 mg QD", "value": "6/10"}, {"measurement": "IL-1 release", "setting": "[2]", "value": "blocks IL-1 release very early"}, {"measurement": "monosodium urate crystal-induced inflammatory response (total white blood cell counts)", "setting": "[3]", "value": "blocked"}, {"measurement": "4 Wk % Flare (percent of patients experiencing at least one gout flare by week 4)", "setting": "[4]; Arm 1 (200 mg weeks 1-4)", "value": 10, "unit": "%"}, {"measurement": "Time to First Flare (cumulative flare rate), Day 0", "setting": "[4]; Arm 1 (200 mg weeks 1-4)", "value": 27}, {"measurement": "Time to First Flare (cumulative flare rate), Day 7", "setting": "[4]; Arm 1 (200 mg weeks 1-4)", "value": 27}, {"measurement": "Time to First Flare (cumulative flare rate), Day 14", "setting": "[4]; Arm 1 (200 mg weeks 1-4)", "value": 26}, {"measurement": "Time to First Flare (cumulative flare rate), Day 21", "setting": "[4]; Arm 1 (200 mg weeks 1-4)", "value": 25}, {"measurement": "Time to First Flare (cumulative flare rate), Day 28", "setting": "[4]; Arm 1 (200 mg weeks 1-4)", "value": 25}, {"measurement": "4 Wk % Flare (percent of patients experiencing at least one gout flare by week 4)", "setting": "[4]; [6]", "value": 12, "unit": "%"}, {"measurement": "Time to First Flare (cumulative flare rate), Day 0", "setting": "[4]; [6]", "value": 31}, {"measurement": "Time to First Flare (cumulative flare rate), Day 7", "setting": "[4]; [6]", "value": 31}, {"measurement": "Time to First Flare (cumulative flare rate), Day 14", "setting": "[4]; [6]", "value": 30}, {"measurement": "Time to First Flare (cumulative flare rate), Day 21", "setting": "[4]; [6]", "value": 28}, {"measurement": "Time to First Flare (cumulative flare rate), Day 28", "setting": "[4]; [6]", "value": 26}, {"measurement": "Time to First Flare (cumulative flare rate), Day 0", "setting": "[4]; [7]", "value": 33}, {"measurement": "Time to First Flare (cumulative flare rate), Day 7", "setting": "[4]; [7]", "value": 31}, {"measurement": "Time to First Flare (cumulative flare rate), Day 14", "setting": "[4]; [7]", "value": 31}, {"measurement": "Time to First Flare (cumulative flare rate), Day 21", "setting": "[4]; [7]", "value": 29}, {"measurement": "Time to First Flare (cumulative flare rate), Day 28", "setting": "[4]; [7]", "value": 29}, {"measurement": "4 Wk % Flare (percent of patients experiencing at least one gout flare by week 4)", "setting": "[4]; Arm 3 (200/400/600/600 mg)", "value": 13, "unit": "%"}, {"measurement": "Mean Duration of Flares (by dose at time of flare)", "setting": "[5]; 200 mg at time of flare", "value": 4, "unit": "days"}, {"measurement": "% of patients with Flares by Dose at Time of Flare", "setting": "[5]; 200 mg at time of flare (6/96)", "value": "6% (6/96)"}, {"measurement": "Mean Duration of Flares (by dose at time of flare)", "setting": "[5]; 400 mg at time of flare", "value": 2, "unit": "days"}, {"measurement": "% of patients with Flares by Dose at Time of Flare", "setting": "[5]; 600 mg at time of flare (3/32)", "value": "9% (3/32)"}, {"measurement": "Mean Duration of Flares", "setting": "[5]; Randomized dose group 200 mg", "value": 4, "unit": "days"}, {"measurement": "% Patients with Flares", "setting": "[5]; Randomized dose group 200 mg, N 31", "value": 6, "unit": "%"}, {"measurement": "Mean Duration of Flares", "setting": "[5]; Randomized dose group 400 mg", "value": 3.8, "unit": "days"}, {"measurement": "% Patients with Flares", "setting": "[5]; Randomized dose group 600 mg, N 32", "value": 13, "unit": "%"}]}
